{"source": "patent US20080280933A1", "about": "“BENZIMIDAZOLYL COMPOUNDS” (priority 2006, published 2008)"}
{"target": "T1, mGluR2 receptor (metabotropic glutamate receptor 2) (Homo sapiens, UniProt Q14416)", "T1 construct": "expressed in transfected cells", "T1 sequence (Q14416 19-872, species assumed)": "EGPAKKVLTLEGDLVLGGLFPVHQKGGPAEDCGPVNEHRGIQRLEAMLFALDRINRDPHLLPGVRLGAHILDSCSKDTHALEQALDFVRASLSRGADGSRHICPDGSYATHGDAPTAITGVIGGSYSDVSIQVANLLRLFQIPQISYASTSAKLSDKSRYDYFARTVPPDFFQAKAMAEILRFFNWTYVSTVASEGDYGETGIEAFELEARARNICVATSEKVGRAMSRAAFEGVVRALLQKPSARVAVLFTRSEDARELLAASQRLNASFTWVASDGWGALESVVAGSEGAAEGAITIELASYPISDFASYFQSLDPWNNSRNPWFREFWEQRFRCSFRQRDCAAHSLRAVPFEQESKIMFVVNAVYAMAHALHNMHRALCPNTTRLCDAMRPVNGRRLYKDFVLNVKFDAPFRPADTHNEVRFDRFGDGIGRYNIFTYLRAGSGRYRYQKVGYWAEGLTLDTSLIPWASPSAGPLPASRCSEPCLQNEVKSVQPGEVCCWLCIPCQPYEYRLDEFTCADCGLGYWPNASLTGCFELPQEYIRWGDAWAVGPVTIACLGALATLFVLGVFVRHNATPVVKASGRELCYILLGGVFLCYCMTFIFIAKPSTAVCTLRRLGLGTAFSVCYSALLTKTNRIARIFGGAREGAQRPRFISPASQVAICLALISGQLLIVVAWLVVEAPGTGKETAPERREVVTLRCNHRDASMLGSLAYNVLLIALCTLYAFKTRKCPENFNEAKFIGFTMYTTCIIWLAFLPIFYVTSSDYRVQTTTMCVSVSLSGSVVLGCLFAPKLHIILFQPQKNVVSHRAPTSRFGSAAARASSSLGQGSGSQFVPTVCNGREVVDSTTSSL", "assay": "mGluR2 Potentiator Screen, FLIPR, EC10-EC20 glutamate challenge", "type": "cell-based", "conditions": "mGluR2 potentiator screen, Table 7; read-out: EC50", "method": "(§1) Procedure for mGluR2 Potentiator Screen NLB Methods EC10-EC20 Challenge Cell Culture and Plating:\n(§2) Cells used for this screen are HEK cells stably transfected with the mGluR2 receptor (metabotropic glutamate receptor 2) and the Gα15 G protein. Clones were identified by functional activity (FLIPR). Cells are grown in growth media containing: DMEM High Glucose with Glutamine and Na Pyruvate (GIBCO), 10% (v/v) Heat inactivate FBS (GIBCO) G418 500 ug/ml (from 50 mg/ml stock) (GIBCO) and Blasticidin 3 ug/ml (from 5 mg/ml stock made in H2O) (Invitrogen).\n(§3) 2 days before the assay cell are trypsinized with 0.25% trysin/EDTA (GIBCO), spun down at 1000 rpm for 5 minutes, resuspended in growth media and plated on polystyrene 384 well black wall/clear bottom poly-D-lysine coated plates at a density of approximately 18,000 cells/well in a volume of 50 μL per well. One day before the assay the growth media is removed from the plates by flicking and replaced with media containing DMEM High Glucose without Glutamine and Na Pyruvate (GIBCO) and 10% (v/v) dialyzed FBS (GIBCO). The reason for the removal of glutamine the day before the assay is to minimize the amount of glutamate that will be present during the assay, as endogenous glutarnate released from the cells can reduce the fluorescent response and interfere with the FLIPR screen.\n(§4) FLIPR Methods and Data Analysis:\n(§5) On the day of the assay, the FLIPR assay is performed using the following methods:\n(§6) The pH is adjusted to 7.4 with 1M NaOH. Prepare a 2 mM (approx.) stock solution of Fluo-4.am (Molecular Probes) dye in DMSO −22 μl DMSO per 50 ug vial (440 μL per 1 mg vial). Make a 1 mM (approx.) flou-4, PA working solution per vial by adding 22 μl of 20% pluronic acid (PA) (Molecular Probes) in DMSO to each 50 ug vial (440 μL per 1 mg vial). Prepare a 250 mM Probenecid (Sigma) stock solution by dissolving 0.71 g into 5 ml 1N NaOH and 5 ml assay buffer (for each liter of assay wash buffer). Make 4 uM (approx.) dye incubation media by adding 2.50 ug vials per 11 ml DMEM high glucose without glutamine (220 ml per 1 mg vial). Add 110 μL probenecid stock per 11 ml (2.5 mM final [concentration]). To the dye media add 3 units/ml of glutamic-pyruvic transaminase (GPT, Sigma) and 3 mM Na Pyruvate. The assay has worked with dye concentrations from 2 uM to 8 uM dye as well. To the assay buffer from drug preparation, add 1.83 mls DMSO and 400 μL. 15.8% P104 (from New Leads biology) per liter for final concentrations of 0.18% DMSO and 0.006% P104. To the assay buffer for cell washing, add probenecid in the same manner and concentration that was used for the dye media.\n(§7) Remove growth media from cell plates by flicking. Add 50 μl/well dye solution. Incubate 1 hour at 37° C. and 5% CO2. Remove dye solution and wash 3 times with assay buffer+probenecid (100 μl probenecid stock per 10 ml buffer), leaving 30 μL/well assay buffer. Wait at least 10-15 minutes. Compounds and agonist challenge additions are performed with the FLIPR. The in addition is for test compounds, which are added as 15 μL of 4× [concentration] of potentiator. The second 2nd addition is 15 μL of 4× [concentration] of agonist or challenge. This achieves 1× concentration of all compounds only after 2nd addition. The 1st and 2nd additions are performed separately using the FLIPR, which give 2 different data files. Compounds are pretreated at least 30 minutes before agonist addition.\n(§8) Results are analyzed by dividing the peak fluorescent value of the FLIPR response by the […] to achieve a ratio response. The ratios are then analyzed by curve fitting programs. Since potent compounds can give an inverted U dose response curve (due to effects on endogenous glutamate by the potentiators) points are deleted at concentrations higher than the concentration that gives the maximum effect. Maximum values for dose response curves (forced fitting) are derived from standards on the plate.\n(§9) Compound Preparation and Glutamate Challenge: […]", "units": {"EC50": "µM"}}
{"compound": "COCCn1c(CN2CCC(c3cc(Cl)ccc3OCC3CCCCO3)CC2)nc2ccccc21", "note": "(centres unmarked) [compound 218]", "EC50": 1.55}
{"compound": "Cn1c(CN2CCC(c3ccc(C(F)(F)F)cc3)CC2)nc2ccccc21", "note": "[compound 166]", "EC50": 0.0778}
{"compound": "Clc1ccc(OCC2CCOC2)c(C2CCN(Cc3nc4ccccc4n3C3CC3)CC2)c1", "note": "(centres unmarked) [compound 202]", "EC50": 2.88}
{"compound": "Cn1c(CN2CCC(Cc3ccccc3)C2)nc2ccccc21", "note": "(centres unmarked) [compound 158]", "EC50": 0.865}
{"compound": "Cn1c(CN2CCC(c3cc(Cl)ccc3OCCC3CC3)CC2)nc2ccccc21", "note": "[compound 189]", "EC50": 0.153}
{"target": "T1, mGluR2 receptor (metabotropic glutamate receptor 2)", "assay": "mGluR2 Potentiator Screen, FLIPR, EC10-EC20 glutamate challenge", "type": "cell-based", "conditions": "read-out: EC50", "method": "as §1, §2, §3, §4, §5, §6, §7, §8, §9", "units": {"EC50": "µM"}}
{"compound": "Cc1nnsc1C(=O)N1CC2(CCN(Cc3nc4ccccc4n3C)CC2)c2ccccc21", "note": "[compound 28]", "EC50": 2.11}
{"compound": "FC(F)(F)c1ccccc1C1CCN(Cc2nc3ccccc3n2C2CC2)CC1", "note": "[compound 245]", "EC50": 3.35}
{"compound": "COc1cccc(C2CCN(Cc3nc4cc(F)ccc4n3C)CC2)c1", "note": "[compound 378]", "EC50": 0.568}
{"compound": "COc1ccccc1C1(OC)CCN(Cc2nc3ccccc3n2CCF)CC1C", "note": "(centres unmarked) [compound 335]", "EC50": 10.4}
{"compound": "C#CCOc1ccc(Cl)cc1C1CCN(Cc2nc3ccccc3n2CF)CC1", "note": "[compound 237]", "EC50": 0.302}
{"compound": "Cn1c(CN2CCC(c3ccccc3F)CC2)nc2cc(F)c(F)cc21", "note": "[compound 259]", "EC50": 0.468}
{"compound": "CN(C)CCCOc1ccccc1C1CCN(Cc2nc3ccccc3n2C)CC1", "note": "[compound 88]", "EC50": 4.19}
{"compound": "Cc1ccc2c(c1)C1(CCN(Cc3nc4ccccc4n3C)CC1)CN2CC1CCCO1", "note": "(centres unmarked) [compound 124]", "EC50": 4.11}
{"compound": "Cn1c(CN2CCC(c3ccccc3OC(F)(F)F)CC2)nc2ccccc21", "note": "[compound 413]", "EC50": 0.0776}
{"compound": "CC(C)C(=O)N1CC2(CCN(Cc3nc4ccccc4n3C)CC2)c2cc(F)ccc21", "note": "[compound 17]", "EC50": 3.31}
{"compound": "CC(Oc1ccccc1C1CCN(Cc2nc3ccccc3n2C)CC1)c1ccccc1", "note": "(centres unmarked) [compound 103]", "EC50": "> 5.64"}
{"compound": "COCn1c(CN2CCC(c3cc(C(F)(F)F)ccc3OC)CC2)nc2ccccc21", "note": "[compound 320]", "EC50": 3.8}
{"compound": "2-((4-(2-Fluorophenyl)piperidin-1-yl)methyl)-1-methyl-6-phenyl-1H-benzo[d]imidazole [Entry 276]", "EC50": 3.1}
{"compound": "C#CCOc1ccc(Cl)cc1C1CCN(Cc2nc3ccccc3n2C)CC1", "note": "[compound 238]", "EC50": 0.0781}
{"compound": "2-{[Cis-4-(3,4-Difluoro-phenyl)-3-methyl-piperidin-1-yl]methyl}-1-methyl-1H-benzoimidazole [Entry 462]", "EC50": 1.81}
{"compound": "COCCn1c(CN2CCC(c3ccccc3F)CC2)nc2ccccc21", "note": "[compound 249]", "EC50": 0.251}
{"compound": "Cn1c(CN2CCC(c3ccc(Cl)cc3F)CC2)nc2ccccc21", "note": "[compound 451]", "EC50": 0.00757}
{"compound": "COc1ccc(F)cc1C1CCN(Cc2nc3ccccc3n2C)CC1", "note": "[compound 300]", "EC50": 0.0607}
{"compound": "COc1ccccc1C1(OC)CCN(Cc2nc3ccccc3n2C)CC1C", "note": "(centres unmarked) [compound 332]", "EC50": 5.22}
{"compound": "Cn1c(CN2CCC(c3ccc(C(F)(F)F)cc3)CC2)nc2cc(C#N)ccc21", "note": "[compound 317]", "EC50": 0.0907}
{"compound": "Cn1c(CN2CCC(c3ccccc3F)CC2)nc2cccc(C#N)c21", "note": "[compound 307]", "EC50": 0.0314}
{"compound": "Cn1c(CN2CCC(c3cccc(Cl)c3)CC2)nc2ccccc21", "note": "[compound 417]", "EC50": 0.18}
{"compound": "COCn1c(CN2CCC(c3ccc(C(F)(F)F)cc3OC)CC2)nc2ccccc21", "note": "[compound 358]", "EC50": 0.471}
{"compound": "Cn1c(CN2CCC(c3ccccc3F)CC2)nc2cccc(-c3ccccc3)c21", "note": "[compound 308]", "EC50": 0.151}
{"compound": "2-((4-(2-fluorophenyl)piperidin-1-yl)methyl)-6-methoxy-1-methyl-1H-benzo[d]imidazole [Entry 278]", "EC50": 1.62}
{"compound": "CC(C)CCN1CC2(CCN(Cc3nc4ccccc4n3C)CC2)c2ccccc21", "note": "[compound 116]", "EC50": 3.12}
{"compound": "CC(C)CN1CC2(CCN(Cc3nc4ccccc4n3C)CC2)c2cc(Cl)ccc21", "note": "[compound 113]", "EC50": 4.37}
{"compound": "COCn1c(CN2CCC(c3ccc(F)cc3)CC2)nc2ccccc21", "note": "[compound 365]", "EC50": 1.67}
{"compound": "COc1ccc2nc(CN3CCC(c4ccccc4F)CC3)n(C)c2c1", "note": "[Entry 278, 2-((4-(2-fluorophenyl)piperidin-1-yl)methyl)-6-methoxy-1-methyl-1H-benzo[d]imidazole]", "EC50": 0.0466}
{"compound": "COc1ccc(Cl)cc1C1CCN(Cc2nc3ccccc3n2C)CC1", "note": "[compound 231]", "EC50": 0.115}
{"compound": "Cn1c(CN2CCCC(c3ccccc3)CC2)nc2ccccc21", "note": "(centres unmarked) [compound 305]", "EC50": 0.235}
{"compound": "Cn1c(CN2CCC(c3cc(Cl)ccc3F)CC2)nc2cc(Cl)ccc21", "note": "[compound 380]", "EC50": 1.73}
{"compound": "Cn1c(CN2CCC(c3ccc(Cl)cc3)CC2)nc2ccccc21", "note": "[compound 420]", "EC50": 0.664}
{"compound": "Cn1c(CN2CCC(c3ccc(Cl)c(F)c3)CC2)nc2ccccc21", "note": "[compound 450]", "EC50": 0.079}
{"compound": "COc1ccc(-c2cccc3nc(CN4CCC(c5ccccc5F)CC4)n(C)c23)cn1", "note": "[compound 309]", "EC50": 0.112}
{"compound": "COCC(=O)N1CC2(CCN(Cc3nc4ccccc4n3C)CC2)c2cc(Cl)ccc21", "note": "[compound 44]", "EC50": "> 5.1"}
{"compound": "COc1ccccc1C1CCN(Cc2nc3cc(C#N)ccc3n2C)CC1", "note": "[compound 283]", "EC50": 0.0908}
{"compound": "COc1ccccc1C1CCN(Cc2nc3cc(N)ccc3n2C)CC1", "note": "[compound 281]", "EC50": 1.51}
{"compound": "CN1CCC[C@H]1COc1ccccc1C1CCN(Cc2nc3ccccc3n2C)CC1", "note": "[compound 98]", "EC50": "> 4.81"}
{"compound": "COc1ccccc1C1CCCN(Cc2nc3ccccc3n2C)CC1", "note": "(centres unmarked) [compound 304]", "EC50": 0.276}
{"compound": "CN1CC2(CCN(Cc3nc4ccccc4n3C)CC2)c2cc(F)ccc21", "note": "[compound 136]", "EC50": 2.65}
{"compound": "Cc1ccc2c(c1)C1(CCN(Cc3nc4ccccc4n3C)CC1)CN2C(=O)c1ccco1", "note": "[compound 37]", "EC50": 1.82}
{"compound": "Cn1c(CN2CCC3(CC2)CN(C(=O)c2cccs2)c2ccccc23)nc2ccccc21", "note": "[compound 59]", "EC50": 3.11}
{"compound": "Cn1c(CN2CCC3(CC2)CN(C(=O)C2CC2)c2ccccc23)nc2ccccc21", "note": "[compound 61]", "EC50": 4.01}
{"compound": "Cn1c(CN2CCC(c3ccccc3OCC3CCCC3)CC2)nc2ccccc21", "note": "[compound 86]", "EC50": 2.31}
{"compound": "COc1cc(C(F)(F)F)ccc1C1CCN(Cc2nc3ccccc3n2CCF)CC1", "note": "[compound 357]", "EC50": 0.105}
{"compound": "COc1cc(F)ccc1[C@H]1CCN(Cc2nc3ccccc3n2C)C[C@H]1C", "note": "(relative stereo) [compound 464]", "EC50": 0.125}
{"compound": "COc1cc(C(F)(F)F)ccc1C1CCN(Cc2nc3cc(F)c(F)cc3n2C)CC1", "note": "[compound 360]", "EC50": 0.266}
{"compound": "COCCn1c(CN2CCC(c3ccc(F)cc3)CC2)nc2ccccc21", "note": "[compound 367]", "EC50": 0.905}
{"compound": "Cn1c(CN2CC[C@@H]3c4c(Br)ccc(Cl)c4CC[C@H]3C2)nc2ccccc21", "note": "[compound 299]", "EC50": 6.12}
{"compound": "Cn1c(CN2CCC(c3ccc(Cl)cc3F)CC2)nc2cc(F)ccc21", "note": "[compound 458]", "EC50": 0.0419}
{"compound": "Cn1c(CN2CCC(c3cccc(C(C)(C)C)c3)CC2)nc2ccccc21", "note": "[compound 419]", "EC50": 0.149}
{"compound": "Cn1c(CN2CCC(c3ccccc3F)CC2)nc2cc(C(N)=O)ccc21", "note": "[Entry 363, 2-((4-(2-Fluorophenyl)piperidin-1-yl)methyl)-1-methyl-1H-benzo[d]imidazol-5-carboxamide]", "EC50": 2.02}
{"compound": "CCc1ccc(C2CCN(Cc3nc4ccccc4n3C)CC2)cc1", "note": "[compound 426]", "EC50": 0.0892}
{"compound": "CC1CN(Cc2nc3ccccc3n2C)CC(C)C1(O)c1ccccc1", "note": "(centres unmarked) [compound 82]", "EC50": "> 7.44"}
{"compound": "Cn1c(CN2CCC(c3ccc(F)cc3F)CC2)nc2cccc(F)c21", "note": "[compound 424]", "EC50": 0.0483}
{"compound": "Cc1cccc2nc(CN3CCC(c4ccccc4F)CC3)n(C)c12", "note": "[compound 301]", "EC50": 0.0423}
